For this test, the target named is Ubiquitin-conjugating enzyme E2 N (Homo sapiens) (UniProt P61088). The test can be described thus: UBC13 polyubiquitination inhibitor potency, dose response, biochemical, TR-FRET, reconfirmation (AID 493182).

Data on seven molecules can be found in PubChem BioAssay AID493182 (Sanford-Burnham Center for Chemical Genomics, 2011).

Chain of Ubiquitin-conjugating enzyme E2 N (Homo sapiens) (P61088 whole entry, looked up): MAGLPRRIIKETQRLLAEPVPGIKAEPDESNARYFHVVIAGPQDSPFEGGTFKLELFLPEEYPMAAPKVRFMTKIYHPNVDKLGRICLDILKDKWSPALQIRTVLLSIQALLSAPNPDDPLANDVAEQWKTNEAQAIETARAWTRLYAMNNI

As for `O=C(CSc1nc2ccsc2c(=O)n1Cc1ccc(C(=O)O)cc1)NCC1CCCO1` (configuration not stated), the IC50 (commonly the point on the concentration scale where inhibition reaches its midpoint) is 17.3 µM.

Turning to `C#CCOCCOCCOCCNc1nc(N2CCN(C(=O)CCCCCCCCCCNC(=O)[C@H](CCCCN)n3cc(CCO)nn3)CC2)nc(N2CCN(C(=O)CCCCCCCCCCNC(=O)[C@H](CCCCN)n3cc(CCO)nn3)CC2)n1`, the IC50 is 4.73 µM. To `CCCCCCCCCCC[N+](C)(C)CC/C=C1/c2ccccc2Sc2ccc(Cl)cc21` belongs 4.77 µM; to `C#CCOCCOCCOCCNc1nc(N2CCN(C(=O)C([C@@H](C)O)n3cc([C@@H](N)CCCCN)nn3)CC2)nc(N2CCN(C(=O)[C@H](CCCCN)n3cc(CN)nn3)CC2)n1` (some centres not stated), 3.71 µM; to `CCC[C@@H](CN1CCC[C@H]1CN1C(N)=NC[C@H]1CC(C)C)N1C[C@@H](Cc2ccccc2)N(CCc2ccc(Cl)c(Cl)c2)C1=N`, 12.6 µM. Consider `N#Cc1ccc(OCC(=O)NNC(=S)NC(=O)C2CC2)cc1`, for which the IC50 is 6.43 µM. In the case of `Cc1ccc(N(C(=O)c2snc(C(N)=O)c2N)C(C(=O)NCC2CCCO2)c2c[nH]c3ccccc23)cc1` (configuration not stated), the IC50 is 12.1 µM.
